Here are results for five compounds from PMC7438908, “Antimicrobial Peptide Reverses ABCB1-Mediated Chemotherapeutic Drug Resistance” (Frontiers in Pharmacology, 2020).

Entries after “also recorded” stand apart in the source; their conditions may differ. Read-outs that look alike come from different tables or passages of the source. Where no end group is shown, it is not given here.

The test system of data set [1] is KB-3-1 cells. Nature of the data set: MTT cytotoxicity of peptides, parental KB-3-1. It counts as cell-based, human. Conditions: KB-3-1 parental; modified MTT, 68 h + 4 h MTT, 570 nm; three independent experiments. How it is done:
(§1) Therefore, we used KB-C2 and its parental cell line KB-3-1 in this study. […] All the cell lines were cultured in DMEM containing 1% penicillin/streptomycin and 10% FBS at 37°C with 5% CO2. All drug-resistant cell lines were cultured in drug-free medium for more than 2 weeks prior to their use.
(§2) Briefly, 5×10^3 cells per well were evenly seeded in 96-well microplates overnight. For the cytotoxicity assay, peptides and positive control of known substrate anticancer drugs were added in a designated concentration gradient. For the reversal assay, peptides and positive control agents were added 2 h before the addition of anticancer drugs within the specified concentration gradient. The plates were incubated in a culture condition for 68 h followed by the addition of 20 μL MTT solution (4 mg/mL) and further incubation of 4 h. After aspirating the culture medium and MTT solution, the formazan crystals were dissolved with 100 μL DMSO. The absorbance was determined at 570 nm with the accuSkan GO UV/Vis Microplate Spectrophotometer (Fisher Sci., Fair Lawn, NJ).

Another data set addresses T1, ABCB1 (Homo sapiens, UniProt P08183).
T1 construct: purchased BD Biosciences, San Jose, CA, USA; host or cells: High Five insect cells (membrane vesicles)
Nature of the data set: ABCB1 ATPase assay (vanadate-sensitive). To be noted: insect cell membrane vesicles. The format is biochemical. How it is done:
The ABCB1 ATPase activity was measured based on vanadate-sensitive principle as previously described ([Zhang et al., 2016]). The High Five insect cells membrane vesicles (BD Biosciences, San Jose, CA, USA) were first incubated for 5 min in ATPase assay buffer at 37°C with or without 0.3 mM vanadate. Then peptide HX-12C at a concentration of 0 to 40 μM was adding to the assay buffer and incubated at 37°C for 3 min. After adding 5 mM Mg-ATP with a total volume of 0.1 mL, the ATPase reaction was initiated until stopped by adding 100 μL 5% SDS solution after incubation at 37°C for 20 min. The amount of inorganic phosphate (IP) was used to calculate the ATPase activity of ABCB1, detected at 800 nm using a spectrophotometer.

Data set [2] deals with ABCB1 in KB-C2 cells. The experiment in a line: [3H]-paclitaxel accumulation, KB-C2. It counts as cell-based, human. To be noted: KB-C2 vs KB-3-1; after 2 hours of incubation; no inhibitor. How it is done:
(§3) Drug accumulation and efflux assays were performed as previously described ([Fan et al., 2018]). For the drug accumulation assay, KB-C2 and KB-3-1 cells were seeded at 1×10^4 cells per well into 24-well plates and incubated at 37°C overnight. After cells were incubated in the presence or absence of peptide HX-12C and positive reversal agent for 72 h, the medium was replaced by medium containing 5 μM [^3H]-paclitaxel with peptide HX-12C or positive reversal agent. The drug medium was discarded after 2 h incubation, then cells were washed three times with ice-cold PBS and transferred to the scintillation fluid. The drug efflux assay was performed after discarding the drug medium, then cells were washed three times with ice-cold PBS and treated with the medium containing peptide HX-12C or positive reversal agent. There were three different time points (30, 60, and 120 min) at which after changing the medium, the cells were washed three times with ice-cold PBS and collected and transferred to the scintillation fluid. The Packard TRI-CARB1 190`A liquid scintillation analyzer was used to measure radioactivity. A parallel well of cells for each group was set up for cell number counting at the end of assay for the purpose of data normalization.

Data set [3] deals with ABCB1 in KB-C2 cells. Nature of the data set: [3H]-paclitaxel efflux, KB-C2. Conditions: without inhibitor treatment, 2 h. The format is cell-based, human. As for the experimental part:
as §3

Data set [4] has as its system KB-3-1 cells. The experiment in a line: MTT reversal assay, parental KB-3-1. It counts as cell-based, human. To be noted: no modulator, mean ± SD of at least three independent experiments in triplicate, read-out: IC50 of anticancer drug alone. How it is done: as §1, §2
The subject of a further data set is HEK293/pcDNA3.1 cells. The experiment in a line: MTT reversal assay, HEK293/pcDNA3.1. It counts as cell-based. To be noted: no modulator, mean ± SD of at least three independent experiments in triplicate, read-out: IC50 of anticancer drug alone. As for the experimental part: as §1, §2
In data set [5] the test system is KB-C2 cells (ABCB1-overexpressing). The experiment in a line: MTT reversal assay, drug-selected ABCB1-overexpressing KB-C2. It counts as cell-based, human. As for the experimental part:
as §1, §2

The next data set deals with HEK293/ABCB1 cells. The experiment in a line: MTT reversal assay, transfected HEK293/ABCB1. It counts as cell-based. To be noted: HEK293/ABCB1, read-out: IC50 of anticancer drug alone.

T1 sequence (P08183 whole entry): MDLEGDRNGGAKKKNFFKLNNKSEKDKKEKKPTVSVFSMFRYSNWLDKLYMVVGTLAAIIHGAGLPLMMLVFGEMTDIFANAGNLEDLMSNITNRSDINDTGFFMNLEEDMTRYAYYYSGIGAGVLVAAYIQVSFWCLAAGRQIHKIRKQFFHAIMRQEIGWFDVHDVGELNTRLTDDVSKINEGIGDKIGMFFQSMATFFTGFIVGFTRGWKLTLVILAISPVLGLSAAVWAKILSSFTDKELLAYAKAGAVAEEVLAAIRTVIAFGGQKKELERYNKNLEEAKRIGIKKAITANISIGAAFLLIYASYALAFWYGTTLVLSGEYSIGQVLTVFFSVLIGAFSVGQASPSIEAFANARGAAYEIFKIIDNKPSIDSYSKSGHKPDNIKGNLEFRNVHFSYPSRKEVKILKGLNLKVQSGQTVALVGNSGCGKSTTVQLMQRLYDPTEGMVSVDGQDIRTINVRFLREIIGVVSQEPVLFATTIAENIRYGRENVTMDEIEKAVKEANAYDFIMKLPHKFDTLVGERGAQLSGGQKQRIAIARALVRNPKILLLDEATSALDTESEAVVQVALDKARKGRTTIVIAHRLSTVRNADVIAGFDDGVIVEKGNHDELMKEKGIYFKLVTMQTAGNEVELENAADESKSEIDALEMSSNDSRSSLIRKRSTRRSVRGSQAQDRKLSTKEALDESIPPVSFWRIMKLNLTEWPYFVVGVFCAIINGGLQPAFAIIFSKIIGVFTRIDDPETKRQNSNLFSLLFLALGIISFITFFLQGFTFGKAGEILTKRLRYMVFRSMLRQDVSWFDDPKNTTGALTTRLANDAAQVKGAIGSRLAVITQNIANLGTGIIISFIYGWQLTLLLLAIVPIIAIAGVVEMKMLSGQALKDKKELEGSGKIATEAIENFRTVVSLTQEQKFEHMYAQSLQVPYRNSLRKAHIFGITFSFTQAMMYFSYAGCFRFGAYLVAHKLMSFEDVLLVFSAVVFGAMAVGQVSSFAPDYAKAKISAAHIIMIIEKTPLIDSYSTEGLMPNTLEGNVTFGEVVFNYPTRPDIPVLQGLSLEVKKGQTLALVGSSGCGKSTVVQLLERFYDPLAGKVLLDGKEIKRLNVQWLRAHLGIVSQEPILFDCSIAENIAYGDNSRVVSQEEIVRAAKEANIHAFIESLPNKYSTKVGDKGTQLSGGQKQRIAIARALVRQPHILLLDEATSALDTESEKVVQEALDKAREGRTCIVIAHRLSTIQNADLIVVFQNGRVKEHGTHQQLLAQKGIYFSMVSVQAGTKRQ

Regarding FFRKVLKLIRKIWR [HX-12C], in the data set on KB-3-1 cells [1], the IC50 came out at 7.53 µM. On ABCB1 (0 to 40 μM), the “effect on ATPase activity of ABCB1” value is “stimulated ABCB1 ATPase activity; also recorded: can stimulate the ATPase activity of ABCB1 in a concentration-dependent manner”. For the same compound, the “maximal stimulation of ABCB1 ATPase activity” value on ABCB1 (peptide 0 to 40 μM, 37°C, 20 min, vanadate-sensitive, three independent experiments) is reported as 4.7 fold of the basic activity.

`CC(=O)O[C@H]1C(=O)[C@@]2(C)[C@H]([C@H](OC(=O)c3ccccc3)[C@]3(O)C[C@H](OC(=O)[C@H](O)[C@@H](NC(=O)c4ccccc4)c4ccccc4)C(C)=C1C3(C)C)[C@]1(OC(C)=O)CO[C@@H]1C[C@@H]2O` [[^3H]-paclitaxel]: the “level of [3H]-paclitaxel in KB-C2 lower than in KB-3-1” value with ABCB1 in KB-C2 cells [2] is given as “approximately 100 fold”. Also, the “decrease of intracellular [3H]-paclitaxel (efflux)” value with ABCB1 in KB-C2 cells [3] is listed as “about 50%”.

On to `N.N.[Cl][Pt][Cl]` [Cisplatin, cisplatin], for which the IC50 with KB-3-1 cells [4] was 1790 ± 476 nM; in the data set on HEK293/pcDNA3.1 cells it was 2210 ± 541 nM.

Take `COc1cccc2c1C(=O)c1c(O)c3c(c(O)c1C2=O)C[C@@](O)(C(=O)CO)C[C@@H]3O[C@H]1C[C@H](N)[C@H](O)[C@H](C)O1` [Doxorubicin, doxorubicin]: the half-inhibitory concentration (IC50) is 1190 ± 279 nM with KB-3-1 cells [4] (Homo sapiens); 69.8 ± 4.64 µM in data set [5] (Homo sapiens, KB-C2, read-out: IC50 of anticancer drug alone); 31.2 ± 5.41 µM in the data set on HEK293/ABCB1 cells. Further, the “IC50 in ABCB1-overexpressing cells compared with parental cells” value in data set [5] is listed as “significantly higher than those of their parental cells”.

Regarding `CC(=O)O[C@H]1C(=O)[C@@]2(C)[C@H]([C@H](OC(=O)c3ccccc3)[C@]3(O)C[C@H](OC(=O)[C@H](O)[C@@H](NC(=O)c4ccccc4)c4ccccc4)C(C)=C1C3(C)C)[C@]1(OC(C)=O)CO[C@@H]1C[C@@H]2O` [Paclitaxel, paclitaxel], the IC50 in the data set with KB-3-1 cells [4] (Homo sapiens) is 2 ± 0.7 nM; in the data set on HEK293/pcDNA3.1 cells (Homo sapiens), 1450 ± 121 nM; with HEK293/ABCB1 cells it was 30.9 ± 4.67 µM.
